Test results taken from article PMC3323675 (Biochemistry, 2012).

Experiments:
[1] = biological target: T1, geranyl diphosphate C-methyltransferase (GPPMT) (Streptomyces coelicolor, UniProt Q9F1Y5); assay: radiometric methyl transfer, pentane extraction, scintillation counting; assay type: biochemical; details: 10 mM MgCl2, pH 7.0, 30 °C
[2] = biological target: T1, geranyl diphosphate C-methyltransferase (GPPMT); assay: X-ray crystal structure, […] Å; assay type: binding; details: with SAH and Mg2+; monomers A, D, H, J only, partial occupancy
[3] = biological target: T1, geranyl diphosphate C-methyltransferase (GPPMT); assay: X-ray crystal structure, […] Å; assay type: binding; details: with SAH and Mg2+; isoprenoid substrate site

T1 sequence (Q9F1Y5 whole entry): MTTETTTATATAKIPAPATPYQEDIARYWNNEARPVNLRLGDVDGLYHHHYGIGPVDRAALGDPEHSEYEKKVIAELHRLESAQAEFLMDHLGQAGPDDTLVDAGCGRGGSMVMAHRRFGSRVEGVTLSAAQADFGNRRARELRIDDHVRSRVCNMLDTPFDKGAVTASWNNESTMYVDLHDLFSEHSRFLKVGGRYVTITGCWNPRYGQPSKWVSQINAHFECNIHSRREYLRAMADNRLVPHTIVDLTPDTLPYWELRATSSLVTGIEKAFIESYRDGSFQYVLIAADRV

CC(C)=CCC/C(C)=C/COP(=O)(O)OP(=O)(O)O [GPP, geranyl diphosphate] was tested, and the KM ([1]; 60 µM SAM) was “Kinetic parameters (Vmax and KM) were obtained for GPP and SAM” and the “X-ray crystal structure, 2.05 Å” value [2] was “sufficient electron density to model GPP is observed only in monomers A, D, H, and J”.
For CC(C)=CCC/C(C)=C/CSP(=O)(O)OP(=O)(O)O [GSPP, geranyl-S-thiolodiphosphate], the “X-ray crystal structure, 1.82 Å” value [3] was “GSPP is bound with full occupancy in all monomers”.
C[S+](CC[C@H](N)C(=O)O)C[C@H]1O[C@@H](n2cnc3c(N)ncnc32)[C@H](O)[C@@H]1O (stereo partly drawn) [SAM, S-adenosyl-L-methionine] was tested, and the KM ([1]; 60 µM GPP, labelled compound) was “Kinetic parameters (Vmax and KM) were obtained for GPP and SAM”.
